Measurements reported in ChEMBL document CHEMBL4118204, “Antidiabetic potential of phytochemicals isolated from the stem bark of Myristica fatua Houtt. var. magnifica (Bedd.) Sinclair” (Bioorg Med Chem, 2018).

What was measured:
[1] = Inhibition of rat intestinal alpha-glucosidase using p-nitrophenyl alpha-D-glucopyranoside as substrate pretreated for 10 mins followed by substrate addition measured after 5 mins
[2] = molecular target: T1, Pancreatic alpha-amylase (Sus scrofa, UniProt P00690); experiment: Inhibition of porcine pancreatic alpha-amylase using starch as substrate after 30 mins by iodine reagent based assay
T1 sequence (P00690 whole entry): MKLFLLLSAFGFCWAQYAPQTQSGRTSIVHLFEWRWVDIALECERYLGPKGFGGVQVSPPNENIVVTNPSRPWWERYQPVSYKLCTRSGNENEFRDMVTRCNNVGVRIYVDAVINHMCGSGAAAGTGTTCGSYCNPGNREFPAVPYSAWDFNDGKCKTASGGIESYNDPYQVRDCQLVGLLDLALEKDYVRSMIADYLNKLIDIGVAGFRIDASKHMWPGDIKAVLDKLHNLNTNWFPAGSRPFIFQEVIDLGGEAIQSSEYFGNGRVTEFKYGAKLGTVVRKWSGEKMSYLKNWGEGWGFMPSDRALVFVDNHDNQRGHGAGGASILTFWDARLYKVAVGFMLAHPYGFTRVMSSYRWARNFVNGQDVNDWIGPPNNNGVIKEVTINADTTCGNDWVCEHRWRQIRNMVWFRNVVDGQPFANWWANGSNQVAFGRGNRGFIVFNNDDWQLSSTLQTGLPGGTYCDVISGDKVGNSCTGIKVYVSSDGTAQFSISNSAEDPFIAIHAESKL

[3] = system: L6; experiment: Cytotoxicity against rat L6 cells up to 50 uM after 24 hrs by MTT assay; format: cell-based; settings: l6, 24 h
[4] = molecular target: Albumin (Bos taurus, UniProt P02769); experiment: Antiglycation activity in bovine serum albumin assessed as inhibition of advanced glycated end product formation after 24 hrs in presence of alpha-D-glucose by fluorescence assay
[5] = system: L6; experiment: Antidiabetic activity in rat L6 cells assessed as effect on 2-NBDG uptake at 10 uM pretreated for 24 hrs followed by 2-NBDG addition after 30 mins by FACS (reference value: 20%); format: functional
[6] = system: L6; experiment: Antidiabetic activity in rat L6 cells assessed as effect on 2-NBDG uptake at 25 uM pretreated for 24 hrs followed by 2-NBDG addition after 30 mins by FACS (reference value: 20%); format: functional
[7] = system: L6; experiment: Antidiabetic activity in rat L6 cells assessed as effect on 2-NBDG uptake at 50 uM pretreated for 24 hrs followed by 2-NBDG addition after 30 mins by FACS (reference value: 20%); format: functional
[8] = system: L6; experiment: Antidiabetic activity in rat L6 cells assessed as increase in 2-NBDG uptake pretreated for 24 hrs followed by 2-NBDG addition after 30 mins by FACS; format: functional, cell-based
[9] = system: L6; experiment: Antidiabetic activity in rat L6 cells assessed as effect on 2-NBDG uptake at 100 uM pretreated for 24 hrs followed by 2-NBDG addition after 30 mins by FACS (reference value: 20%); format: functional

Sequence of Albumin (P02769 whole entry): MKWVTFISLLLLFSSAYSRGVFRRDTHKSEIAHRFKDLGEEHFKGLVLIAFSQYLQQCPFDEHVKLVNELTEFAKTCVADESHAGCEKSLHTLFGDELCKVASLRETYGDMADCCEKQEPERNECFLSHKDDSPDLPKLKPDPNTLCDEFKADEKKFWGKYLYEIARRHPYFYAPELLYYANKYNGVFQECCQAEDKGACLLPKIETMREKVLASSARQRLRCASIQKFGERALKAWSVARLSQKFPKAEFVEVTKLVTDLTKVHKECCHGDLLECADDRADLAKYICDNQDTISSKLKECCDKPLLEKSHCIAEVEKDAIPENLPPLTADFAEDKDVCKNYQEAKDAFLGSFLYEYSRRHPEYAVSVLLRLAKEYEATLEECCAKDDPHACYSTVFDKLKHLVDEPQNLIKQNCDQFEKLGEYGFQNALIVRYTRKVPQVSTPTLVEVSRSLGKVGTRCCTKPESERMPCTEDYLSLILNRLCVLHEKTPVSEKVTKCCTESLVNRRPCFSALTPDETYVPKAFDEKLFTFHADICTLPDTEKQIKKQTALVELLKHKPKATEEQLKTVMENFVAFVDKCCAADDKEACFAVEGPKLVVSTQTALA

| Compound | IC50 [1] [µM] | IC50 [2] [µM] | Activity [3] | IC50 [4] [µM] | Activity [5] [%] | Activity [6] [%] | Activity [7] [%] | Activity [8] | Activity [9] [%] |
| --- | --- | --- | --- | --- | --- | --- | --- | --- | --- |
| C[C@H]1O[C@H](O[C@H]2[C@H](O)[C@@H](O)[C@@H](O[C@H]3[C@H](O)[C@@H](O)C(O)O[C@@H]3CO)O[C@@H]2CO)[C@H](O)[C@@H](O)[C@@H]1N[C@H]1C=C(CO)[C@@H](O)[C@H](O)[C@H]1O (some centres not stated) [ACARBOSE] | 66.6 |  |  |  |  |  |  |  |  |
| COc1cccc(O)c1C(=O)CCCCCCCCc1ccc(O)cc1 | 94.5 | 32.3 | Non-Toxic | 104 | 18.3 | 34.1 | 34.6 | Dose-dependent effect |  |
| CN(C)C(=N)NC(=N)N [METFORMIN] |  |  |  |  |  |  |  |  | 36.6 |
| O=C(CCCCCCCCc1ccc(O)cc1)c1c(O)cccc1O [MALABARICONE B] | 63.7 | 12.9 |  | 40.3 | 37.5 | 45.8 | 52.7 | Dose-dependent effect |  |
| O=C(CCCCCCCCc1ccccc1)c1c(O)cccc1O [MALABARICONE A] | 91.4 | 19.1 | Non-Toxic | 19.3 | 32.9 | 33.4 | 36.7 | Dose-dependent effect |  |
| CCCCCCCCCCCCC(=O)c1cccc(C(=O)O)c1 | 372 | 36.6 | Non-Toxic | 411 | 17 | 22.5 | 31.5 | Dose-dependent effect |  |
| CCCCCCCCCCCCCC(=O)c1c(O)cccc1OC | 257 | 39 | Non-Toxic | 192 | 21.2 | 28 | 34.7 | Dose-dependent effect |  |
| CCCCCCCCCCCCCC(=O)c1c(O)cccc1O | 172 | 74.1 | Non-Toxic | 121 | 32.9 | 34.1 | 36.3 | Dose-dependent effect |  |
| O=C(CCCCCCCCc1ccc(O)c(O)c1)c1c(O)cccc1O [MALABARICONE C] | 43.6 | 10.6 | Non-Toxic | 15 | 17 | 18.3 | 23.9 | Dose-dependent effect |  |
